According to ChEMBL document CHEMBL3507680, “University of Dundee, Gates Library screen for HepG2 cell viability”:

Experiment: Human HepG2 cell viability assay in 384 well format
Format: toxicity, cell-based
Parameters: dose 125 nL, time 70.5 hour; cytotoxicity at 70.5 h: concentration not given beside the values
Settings: HepG2 cells, read-out: Inhibition

Compound | cytotoxicity at 70.5 h [%]
Cc1nnc(CN(Cc2cccc3c2OCO3)CC2CCCO2)n1C (stereo not drawn) | -19.6
O=C(Nc1ccccc1)N1CCn2nnc(COc3cccnc3)c2C1 | 1.76
O=C(c1cnc(-c2ccccc2)s1)N1CCOC2(CCCC2)C1 | -3.97
CCO[C@H]1C[C@@H](O)C12CCN(C1CCN(c3ccccc3)CC1)CC2 | -5.15
CC(=O)N1CCC(c2nccnc2CNC(=O)c2cc[nH]n2)CC1 | -4.85
CCN(Cc1ccc(Cl)s1)S(=O)(=O)CC | 0.4
CC(=O)NCC1CCCN(C(=O)Cc2c(C)noc2C)C1 (stereo not drawn) | -22.9
O=C1OCCN1Cc1cccc(F)c1C(F)(F)F | -5.55
O=C(NCc1nn(-c2ccccc2)c2c1CCC2)NCC1COCCO1 (stereo not drawn) | -9.01
Cc1cc(C)nc(N2CC[C@@]3(O)CCN(S(=O)(=O)N(C)C)C[C@H]3C2)n1 | 16.5
COCCn1ccc2ccc(NC(=O)NCc3noc(C)n3)cc21 | 2.1
O=S(=O)(c1ccc(F)cc1)N1CCCC1c1cc[nH]n1 (stereo not drawn) | -7.22
CC1(C)[C@H](Cc2cc(CN3CCCCC3)on2)C[C@@H]1NC(=O)C1CC1 | 10.2
CCN(CC1CN(CCc2ccccn2)CCO1)c1cccnn1 (stereo not drawn) | -3.03
CN(C)C(=O)COCC1CN(Cc2ccoc2)Cc2nnn(C)c21 (stereo not drawn) | 15
Cc1ccc(CNC(=O)c2cc(CN3CCC(O)CC3)on2)s1 | -18
COc1cc(N2CC[C@@H](OC)[C@@H]2Cc2cnn(C)c2)ncn1 | 33.8
O=C(c1csc(-c2ccco2)n1)N(CC1CCOC1)C1CC1 (stereo not drawn) | 4.66
Cc1ccc(N2CCC(NC(C)c3ccc(C)o3)CC2)nc1 (stereo not drawn) | -4.68
CCOc1ncccc1NC(=O)c1cc2c(s1)CCC2 | 1.84
CC(C)(C)c1noc(CCCC(=O)NCC2CCS(=O)(=O)C2)n1 (stereo not drawn) | 0.495
Cc1cc(C(=O)NCCC(C)C)ccc1NS(C)(=O)=O | -11
Cn1nc(CNC(=O)C2CCN(S(C)(=O)=O)CC2)cc1C1CC1 | -3.55

Compound | cytotoxicity at 70.5 h [%]
CC(C)[C@@H]1CN(c2ncc(F)cn2)C[C@H]1NC(=O)N(C)C | -3.08
CN1CCN(Cc2cn3c(n2)CN(C(=O)N2CCOCC2)CC3)CC1 | -3.86
Cc1cccc(C(=O)N2C[C@@H](C)[C@@]3(CCN(c4ccsc4)C3=O)C2)n1 | -16.4
CC[C@@H](C)[C@H](NC(=O)CCn1cc(C(C)=O)c2ccccc21)C(=O)O | -6.89
O=C(N1CCCC1)N1CCOCC2(C1)CN(c1ccccc1)C(=O)CO2 (stereo not drawn) | -3.56
c1ccc(-c2ccc3nc(C4CCN(CC5CC5)CC4)nn3c2)cc1 | -6.34
Cn1cc(N2C[C@@H]3CN(CC4CCOCC4)C[C@@H]3C2=O)cn1 | 2.05
CN(C(=O)Nc1nncs1)C1CCN(c2ccccc2Cl)C1=O (stereo not drawn) | -21.1
CC(=O)N[C@@H]1CN(Cc2nnc(-c3ccccc3)o2)C[C@H]1C(C)C | -16.1
CN1CCCN(C(=O)c2cc3c(s2)CCN3C(=O)c2ccccc2)CC1 | -1.37
O=S(=O)(c1cn[nH]c1)N1CCCC1c1cc[nH]n1 (stereo not drawn) | -7.61
Cc1ccc(CN2CCC3(CCN(Cc4ccncc4)CC3)CC2)cc1 | -3.02
Cc1ccc2c(c1)CN(C(=O)c1cccs1)C(CN(C)C)CO2 (stereo not drawn) | -2.45
CCC(CC)(CCCNC(=O)c1c(C)noc1C)C1OCCO1 | -5.03
c1csc(CN2CCCn3cnc(COCC4CC4)c3C2)c1 | 0.853
Cc1cccc(CN2CCCC2(C(N)=O)c2cnccn2)n1 (stereo not drawn) | 19
Cc1nnc([C@@H]2CC[C@@H]3[C@@H](CCN3S(=O)(=O)c3cccnc3)O2)o1 | 0.577
CN1CCN(C(=O)Cn2nc(C(F)(F)F)c(Br)c2C2CC2)CC1 | -10.9
CCn1nc(C)c(CCNC(=O)C2CCCN(C3CCCC3)C2)c1C (stereo not drawn) | 20.4
O=C1CC2(CCN(Cc3cccs3)C2)CN1c1cccc(F)c1 (stereo not drawn) | -11
CC(O)CN1CCN(C(=O)CN(C)c2cnccn2)CC1 (stereo not drawn) | -8.51
CCc1nccn1CC(=O)N1C[C@H]2CC[C@@H]1CN(S(=O)(=O)N(C)C)C2 | 1.78
Cc1ccccc1CSCCn1nc2ccccn2c1=O | -9.36

Compound | cytotoxicity at 70.5 h [%]
CCOCCn1nc(C)cc1C(=O)N(C)Cc1cccc2ncccc12 | 20.2
Cc1ncccc1Oc1ncnc(N2CCC3(CCCO3)CC2)c1C | -7.69
c1ccc(-c2n[nH]c(CCNc3nnc(C4CCC4)o3)n2)cc1 | -7.22
Cc1nnc(NC(=O)NC2CCOc3ccccc32)s1 (stereo not drawn) | -9.45
COc1cc(CNC(=O)C2CC(=O)N(C(C)C)C2)ccn1 (stereo not drawn) | -16.6
c1cnn(CC2CCCN2c2ncnc3c2CCC3)c1 (stereo not drawn) | 4.07
CCCc1nc(CN2CCOC(Cn3cccn3)C2)no1 (stereo not drawn) | -1.75
Cc1ncsc1CN1CCn2nc(CCC(=O)N3CCCC3)cc2C1 | -6.96
N#Cc1ncn(CCC(=O)Nc2c(Cl)cccc2Cl)n1 | -6.06
CC(O)C1CCN(Cc2cnc3c(-c4ccccc4)cnn3c2)CC1 (stereo not drawn) | -7.53
CC(C)n1cnnc1CNC(=O)CCCOc1ccccc1F | -11.9
O=C(N1CCCC1)N1CCOCC2(CCN(Cc3cccs3)C2)C1 (stereo not drawn) | 29.2
COCC(NC(=O)c1cc(NC(C)=O)ccc1Cl)c1ccccn1 (stereo not drawn) | -5.35
Cc1ccc(C(=O)N2CCCC(Nc3ccc(F)cc3)C2)cc1 (stereo not drawn) | -1.63
CN(C)C(C(=O)N1CCCC1)c1ccccc1F (stereo not drawn) | -1.96
O=C(c1c(F)cccc1F)N1CCOCC1 | 18.9
O=C(Cc1cccs1)N1CC[C@H]2[C@H]1CCN2Cc1cccnc1 | -6.88
CC(C)c1noc(CCC(=O)NC(C)c2ccccn2)n1 (stereo not drawn) | -1.62
Cc1nc(C)n(C2CCCN(C(=O)c3ccc(F)cc3F)C2)n1 (stereo not drawn) | -4.94
COc1ccc(OC)c(CNCc2ccnc(N3CCCCC3)c2)c1 | -8.18
Cn1cncc1CN1CCC2(CCCN2c2ncccn2)CC1 | -8.23
Cc1ccc(-c2noc(CN3CCOC(Cn4cccn4)C3)n2)cc1 (stereo not drawn) | -3.88
Cc1ccccc1-c1cc(C(=O)NCCN2CCCS2(=O)=O)[nH]n1 | -15.5

Compound | cytotoxicity at 70.5 h [%]
CCn1c(C)nnc1SCCNc1nc(C)ncc1S(C)(=O)=O | -11.4
O=C(O)c1cc(/C=C/c2ccccc2)ncn1 | -5.54
O=C(NCCn1ccnc1C1CCOC1)c1cccnc1 (stereo not drawn) | -1.19
Cc1cc(C2CCCN(C(=O)c3ccc(OCC4CC4)nc3)C2)n[nH]1 (stereo not drawn) | -4.64
O=C1NCCCCC1SCc1coc(-c2cccc(F)c2)n1 (stereo not drawn) | -5.82
CC(=O)N1CCN([C@@H]2CCC[C@@H](NC(=O)c3cccnc3)[C@H]2O)CC1 | -11.5
CCc1ncc2c(n1)CN(CC(=O)Nc1ccc(Cl)cn1)CC2 | 32.4
N#Cc1cccc(C(=O)N2CCn3c(Cn4cncn4)cnc3C2)c1 | -5.58
COc1ccc(CN(C(=O)C2CCCO2)c2ccncc2)cc1 (stereo not drawn) | -8.37
CCC(Nc1cccc(Oc2ccc(C#N)cc2)c1)C(N)=O (stereo not drawn) | -4.69
CCCc1nc(CN2CCCC2Cn2cncn2)cs1 (stereo not drawn) | 17.1
O=C(O)CNc1cc(-c2nccnc2N2CCCC2)c2cc[nH]c2n1 | 0.303
CN(C)C(=O)CO[C@H]1CN(Cc2cccc(C#N)c2)[C@@H]2COC[C@H]12 | 7.63
CCN(C(=O)CN1CCCC1Cc1ccccc1)c1ccccc1 (stereo not drawn) | 8.48
CCS(=O)(=O)N1CCc2ccc(=O)n(CC3CC3)c2CC1 | -9.39
O=C(CN1CC(n2cccn2)C1)NCC1(c2ccccc2)CCC1 | 13.6
Cc1nnc(NC(=O)NCc2cccnc2N(C)C)s1 | -8.59
CCOc1ccc(Cl)c(C(=O)NCCc2ncc[nH]2)n1 | -3.13
c1ccc(Cc2cncc(C3CCCN3C3CCOCC3)n2)cc1 (stereo not drawn) | -6.45
CN(Cc1cc(Br)cs1)Cc1nnsc1Cl | -8.26
O=C(O)c1c(-c2cccnc2)ncc2c1CCN(Cc1ccccn1)C2 | -8.57
O=C(Cc1cccs1)N1CCc2nnc(COc3cncnc3)n2CC1 | 14.8
Cc1noc(CN(C)CC(c2cccs2)N2CCOCC2)n1 (stereo not drawn) | -4.96

Compound | cytotoxicity at 70.5 h [%]
CN(C(=O)CN1CCCC1=O)C1CCCN(C2Cc3ccccc3C2)C1 (stereo not drawn) | -3.18
COc1cnc(N2CCCN(c3ccc(F)cc3)CC2)nc1 | 8.19
Cc1cc(N(C)Cc2noc(C)n2)n2nc(C)c(C)c2n1 | -8.45
CN(Cc1ccco1)Cc1cncc2c1CCN(c1ncccn1)C2 | 7.69
Clc1ccccc1CCN1CCN(c2ccc3nncn3n2)CC1 | -16.3
Cc1nc(CN2CCCC(CCc3c(F)cccc3F)C2)c[nH]1 (stereo not drawn) | -2.43
Cc1noc(C)c1CN(C)C(=O)c1n[nH]c(N)c1-c1ccccc1 | -5.4
CCOc1ccc2c(c1)C=C(C(=O)NC(C)Cn1cccn1)CO2 (stereo not drawn) | -5.74
Cc1cnn(CCNCC(O)c2ccc(S(C)(=O)=O)cc2)c1 (stereo not drawn) | -11.8
Cc1cnn(-c2ccc(C(=O)N3CCCC(n4ccnc4C)C3)cc2)c1 (stereo not drawn) | -4.35
CN1CCN(C2CCN(CCOc3cccc(Cl)c3)CC2)C1=O | -7.02
Cc1cnc(N2Cc3cnn(Cc4ccc(F)cc4)c3C2)nc1N(C)C | -0.641
CCOCC1CN(Cc2ccoc2)Cc2cn(CC3CC3)nc21 (stereo not drawn) | -19.8
CN(C)C(=O)C1CCC2(CCNCC2)C1 (stereo not drawn) | -2.3
c1cncc(COC[C@@H]2CCC[C@]23CNCCO3)c1 | 0.77
CC(C)Oc1cccc(F)c1C(C(=O)O)N(C)Cc1ccon1 (stereo not drawn) | 0.036
O=C(c1ccco1)N1CC[C@@H]2O[C@H](COCC3CCOCC3)CC[C@@H]21 | 4.34
CCc1nc(C2CCCN2C(=O)c2ccc(N3CCCC3)nn2)no1 (stereo not drawn) | -3.36
CCC(C(=O)N(C)Cc1cc(-c2ccccc2)n[nH]1)n1cccn1 (stereo not drawn) | -13.1
CNC(=O)c1ccc(CNC(=O)NCCN(C)C2CCCC2)cc1 | -1.36
CC(C)NC(=O)N1CCN(CC2CC2)c2ncccc2C1 | -15.2
